Key:
[1] = intramolecular disulfide formation by ambient air oxidation of bis-Cys peptides on SiO2 array surface after side-chain deprotection (TFA/TMS-OTf) and NH3-gas DKP detachment; fraction oxidized from MALDI relative peak intensities; conditions: the molecule shown is the open-chain precursor, none (dry film on SiO2, ambient air), other, 18.0 h, scale: fraction oxidized
Ferredoxin = experiment: Biotinylated ferredoxin counter screen on linear and lactam constrained peptide microarrays; format: binding; conditions: 10.0 nM biotinylated protein, detected with Streptavidin-Alexa Fluor 555; for Ferredoxin Lactam, log 10 transformed median intensity: lactam constrained library peptide; for Ferredoxin Linear, log 10 transformed median intensity: linear library peptide
Excerpt: (§1) Diaphorase is NAD(P)H dehydrogenase (UniProtKB: P15559) encoded by the NQO1 gene. Diaphorase has utility as a model enzyme; for which peptide based synthetic affinity agents to diaphorase are required. A 3.3 million feature peptide array was used to identify potential binding partner peptides for diaphorase. Ferredoxin NADP+ Reductase (FNR) and Ferredoxin are included as counter screens for a specific application, while immunoglobulin depleted human serum (Non-Immunoglobulin Serum Components or NISC) was used as a complex mixture to control for generally sticky peptides.
(§2) Peptide arrays were prepared for protein binding by pretreating the arrays in PBST for 30 min at […]. Direct labeled diaphorase (Alexa Fluor™ 555), direct labeled FNR (Alexa Fluor™ 555) and biotinylated ferredoxin were applied to the arrays at 1.0 and 10.0 nM along with direct labeled NISC at 0.001 mg/mL for 1 hr at 37° C. Arrays were washed 3× with PBST and Streptavidin-Alexa Fluor™ 555 was applied to the biotinylated ferredoxin and streptavidin alone arrays. All other arrays received PBST and were incubated for 1 hr at 37° C. Arrays were washed with PBST and p53Ab1-Alexa Fluor™ 647 applied to all arrays to illuminate the edge fiducials for 10 min at 37° C. Following the final incubation arrays were washed in PBST and water, dried and imaged on the ImageXpress ([…]). Triplicate arrays were used for the subsequent analysis except for when rejection of an array was necessary due to the presence of artifacts. Data were analyzed using a custom R script.

human diaphorase (NQO1) = target: T1, human diaphorase (NQO1) (Homo sapiens, UniProt P15559); experiment: Alexa Fluor 555-diaphorase binding to linear and lactam constrained peptide microarrays; conditions: 10.0 nM protein applied to the array; for Diaphorase Lactam, log 10 transformed median intensity: lactam constrained library peptide; for Diaphorase Linear, log 10 transformed median intensity: linear library peptide
T1 construct: purchased SigmaAldrich
T1 sequence (P15559 whole entry): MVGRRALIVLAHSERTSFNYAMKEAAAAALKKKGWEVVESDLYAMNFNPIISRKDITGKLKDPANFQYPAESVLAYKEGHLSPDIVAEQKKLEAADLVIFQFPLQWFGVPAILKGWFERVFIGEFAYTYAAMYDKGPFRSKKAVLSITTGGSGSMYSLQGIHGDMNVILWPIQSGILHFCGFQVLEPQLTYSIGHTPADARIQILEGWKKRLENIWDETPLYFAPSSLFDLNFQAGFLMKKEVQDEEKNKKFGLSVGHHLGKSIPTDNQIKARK
Excerpt: as §1
Two wafers from the same synthesis batch were obtained where one wafer was prepared with the lactam chemistry and constrained into a cyclized form. The degree of cyclization was confirmed using the biotinylation assay described in Examples 9, 17, and 19.
as §2
Intensities plotted are the log 10 transformed median intensity from replicate arrays. Coloring of the points represents the density of features at that intensity using a gray-scale map. Light grey represents areas of low peptide numbers while black represents the intensity having the highest number of peptides. The diagonal line is equivalence line. […] CLUSTAL sequence alignment (FIG. 27B) of the sequences indicated similarities in amino acid composition. Highlighted amino acids are conserved in over 60% of the peptides for that position or are a chemically similar amino acid (ie: F and Y).
The sequences contain similar amino acid usage. Four peptides having the highest degree of cyclization in the quality control assay were identified and binding intensities compared to other library peptides having one or two amino acid substitutions as shown in FIG. 28. Substitutional analysis provides confidence in the array data by indicating which residues are important for binding. Dark grey boxes highlight indicate a residue conserved in more than 60% of the peptides. Light grey boxes highlight indicate chemically similar amino acids to the conserved residue. RFI is the intensity is the median replicate log 10 intensity for the 10.0 nM Diaphorase.

[2] = test system: Non-Immunoglobulin Serum Components (NISC); experiment: NISC counter screen on linear and lactam constrained peptide microarrays; format: binding, human; conditions: 0.001 mg/mL NISC applied to the array; for NISC Lactam, log 10 transformed median intensity: lactam constrained library peptide; for NISC Linear, log 10 transformed median intensity: linear library peptide
Excerpt: as §1, §2
Peptides were also selected based on the difference in log 10 transformed intensities between diaphorase and NISC as the counter screen agent (LFGdiaphorase minus LFGNISC). Intensities for 10.0 nM diaphorase and 0.001 mg/mL NISC are shown in FIG. 29A where intensities plotted are the log 10 transformed median intensity from replicate arrays. Coloring of the points represents the density of features at that intensity using a grey colorscale. Light grey represents areas of low peptide numbers while black represents the intensity having the highest number of peptides. The diagonal line is equivalence line. Selectivity vs NISC was not dependent on cyclization as diaphorase also bound the linear forms for some peptides (Table 4). Three peptides having the highest degree of cyclization in the quality control assay were identified and binding intensities compared to other library peptides having one or two amino acid substitutions (FIG. 30) Each CLUSTAL alignment contains the library peptides having a maximum of two substitutions to the parent peptide. Dark grey highlights indicate a residue conserved in more than 60% of the peptides. Light grey highlights indicate chemically similar amino acids to the conserved residue. The amino acid usage is indicated in the sequence logo above the alignment. Substitutional analysis provides confidence in the array data by indicating which residues are important for binding.

Streptavidin = Streptavidin (Streptomyces avidinii, UniProt P22629); experiment: Streptavidin-Alexa Fluor 555 alone on linear and lactam constrained peptide microarrays; format: binding; conditions: for Streptavidin Lactam, log 10 transformed median intensity: lactam constrained library peptide; for Streptavidin Linear, log 10 transformed median intensity: linear library peptide
Sequence of Streptavidin (P22629 25-183, species assumed): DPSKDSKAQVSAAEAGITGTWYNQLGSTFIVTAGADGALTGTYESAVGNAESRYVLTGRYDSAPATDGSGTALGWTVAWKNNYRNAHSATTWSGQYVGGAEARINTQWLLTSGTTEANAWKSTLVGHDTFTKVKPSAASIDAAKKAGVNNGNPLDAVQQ
Procedure: as §2

[3] = test system: Ferredoxin NADP+ Reductase (FNR); experiment: FNR counter screen on linear and lactam constrained peptide microarrays; format: binding; conditions: 10.0 nM protein applied to the array; for FNR Lactam, log 10 transformed median intensity: lactam constrained library peptide; for FNR Linear, log 10 transformed median intensity: linear library peptide
Excerpt: as §1, §2

Compound: COc1cc(OC)c([P+](CC(=O)N[C@@H](CCCCN)C(=O)N[C@@H](CS)C(=O)N2CCC[C@H]2C(=O)NCC(=O)N[C@@H](CS)C(=O)N[C@@H](CC(C)C)C(=O)NCCCC[C@@H]2NC(=O)[C@@H]3CCCN3C2=O)(c2c(OC)cc(OC)cc2OC)c2c(OC)cc(OC)cc2OC)c(OC)c1
- ring closure, fraction oxidized by MALDI ([1]; 14-membered ring): 0.73

Compound: COc1cc(OC)c([P+](CC(=O)N[C@@H](CCCCN)C(=O)N[C@@H](CS)C(=O)N[C@@H](CS)C(=O)N[C@@H](CC(C)C)C(=O)NCCCC[C@@H]2NC(=O)[C@@H]3CCCN3C2=O)(c2c(OC)cc(OC)cc2OC)c2c(OC)cc(OC)cc2OC)c(OC)c1
- ring closure, fraction oxidized by MALDI ([1]; 8-membered ring): 0.78

Compound: COc1cc(OC)c([P+](CC(=O)N[C@@H](CCCCN)C(=O)N[C@@H](CS)C(=O)N[C@H](C(=O)N2CCC[C@H]2C(=O)NCC(=O)N[C@@H](Cc2c[nH]cn2)C(=O)N[C@@H](CS)C(=O)N[C@@H](CC(C)C)C(=O)NCCCC[C@@H]2NC(=O)[C@@H]3CCCN3C2=O)[C@@H](C)O)(c2c(OC)cc(OC)cc2OC)c2c(OC)cc(OC)cc2OC)c(OC)c1
- ring closure, fraction oxidized by MALDI ([1]; 20-membered ring): 0.63

Compound: COc1cc(OC)c([P+](CC(=O)N[C@@H](CS)C(=O)N2CCC[C@H]2C(=O)NCC(=O)N[C@@H](CS)C(=O)NCCCC[C@@H]2NC(=O)[C@@H]3CCCN3C2=O)(c2c(OC)cc(OC)cc2OC)c2c(OC)cc(OC)cc2OC)c(OC)c1
- ring closure, fraction oxidized by MALDI ([1]; 14-membered ring): 0.77

Compound: COc1cc(OC)c([P+](CC(=O)N[C@@H](CS)C(=O)N[C@@H](CCC(N)=O)C(=O)N2CCC[C@H]2C(=O)NCC(=O)N[C@@H](Cc2ccc(O)cc2)C(=O)N[C@@H](CS)C(=O)NCCCC[C@@H]2NC(=O)[C@@H]3CCCN3C2=O)(c2c(OC)cc(OC)cc2OC)c2c(OC)cc(OC)cc2OC)c(OC)c1
- ring closure, fraction oxidized by MALDI ([1]; 20-membered ring): 0.75

Compound: COc1cc(OC)c([P+](CC(=O)N[C@@H](CS)C(=O)N[C@@H](CCC(N)=O)C(=O)N[C@@H](Cc2ccc(O)cc2)C(=O)N[C@@H](CS)C(=O)NCCCC[C@@H]2NC(=O)[C@@H]3CCCN3C2=O)(c2c(OC)cc(OC)cc2OC)c2c(OC)cc(OC)cc2OC)c(OC)c1
- ring closure, fraction oxidized by MALDI ([1]; 14-membered ring): 0.72

Compound: COc1cc(OC)c([P+](CC(=O)N[C@@H](CS)C(=O)N[C@H](C(=O)N2CCC[C@H]2C(=O)NCC(=O)N[C@@H](Cc2c[nH]cn2)C(=O)N[C@@H](CS)C(=O)NCCCC[C@@H]2NC(=O)[C@@H]3CCCN3C2=O)[C@@H](C)O)(c2c(OC)cc(OC)cc2OC)c2c(OC)cc(OC)cc2OC)c(OC)c1
- ring closure, fraction oxidized by MALDI ([1]; 20-membered ring): 0.79

Compound: COc1cc(OC)c([P+](CC(=O)N[C@@H](CS)C(=O)N[C@H](C(=O)N[C@@H](CCC(N)=O)C(=O)N[C@@H](Cc2c[nH]cn2)C(=O)N[C@@H](Cc2ccc(O)cc2)C(=O)N[C@@H](CS)C(=O)NCCCC[C@@H]2NC(=O)[C@@H]3CCCN3C2=O)[C@@H](C)O)(c2c(OC)cc(OC)cc2OC)c2c(OC)cc(OC)cc2OC)c(OC)c1
- ring closure, fraction oxidized by MALDI ([1]; 20-membered ring): 0.75

Compound: COc1cc(OC)c([P+](CC(=O)N[C@@H](CS)C(=O)N[C@H](C(=O)N[C@@H](Cc2c[nH]cn2)C(=O)N[C@@H](CS)C(=O)NCCCC[C@@H]2NC(=O)[C@@H]3CCCN3C2=O)[C@@H](C)O)(c2c(OC)cc(OC)cc2OC)c2c(OC)cc(OC)cc2OC)c(OC)c1
- ring closure, fraction oxidized by MALDI ([1]; 14-membered ring): 0.78

Compound: COc1cc(OC)c([P+](CC(=O)N[C@@H](Cc2ccc(O)cc2)C(=O)N[C@@H](CS)C(=O)N2CCC[C@H]2C(=O)NCC(=O)N[C@@H](CS)C(=O)N[C@@H](CO)C(=O)NCCCC[C@@H]2NC(=O)[C@@H]3CCCN3C2=O)(c2c(OC)cc(OC)cc2OC)c2c(OC)cc(OC)cc2OC)c(OC)c1
- ring closure, fraction oxidized by MALDI ([1]; 14-membered ring): 0.76

Compound: COc1cc(OC)c([P+](CC(=O)N[C@@H](Cc2ccc(O)cc2)C(=O)N[C@@H](CS)C(=O)N[C@@H](CS)C(=O)N[C@@H](CO)C(=O)NCCCC[C@@H]2NC(=O)[C@@H]3CCCN3C2=O)(c2c(OC)cc(OC)cc2OC)c2c(OC)cc(OC)cc2OC)c(OC)c1
- ring closure, fraction oxidized by MALDI ([1]; 8-membered ring): 0.7

Compound: TTLFQTPY [library array peptide, tested lactam constrained and linear]
- Ferredoxin Lactam, log 10 transformed median intensity (Ferredoxin): 2.66
- Ferredoxin Linear, log 10 transformed median intensity (Ferredoxin): 2.54
- Diaphorase Lactam, log 10 transformed median intensity (human diaphorase (NQO1)): 4.45
- Diaphorase Linear, log 10 transformed median intensity (human diaphorase (NQO1)): 2.80
- NISC Lactam, log 10 transformed median intensity [2]: 3.28
- NISC Linear, log 10 transformed median intensity [2]: 2.69
- Streptavidin Lactam, log 10 transformed median intensity (Streptavidin): 2.53
- Streptavidin Linear, log 10 transformed median intensity (Streptavidin): 2.52
- FNR Lactam, log 10 transformed median intensity [3]: 2.63
- FNR Linear, log 10 transformed median intensity [3]: 2.54

Compound: TYPGVYPS [library array peptide, tested lactam constrained and linear]
- Ferredoxin Lactam, log 10 transformed median intensity (Ferredoxin): 2.69
- Ferredoxin Linear, log 10 transformed median intensity (Ferredoxin): 2.54
- Diaphorase Lactam, log 10 transformed median intensity (human diaphorase (NQO1)): 4.40
- Diaphorase Linear, log 10 transformed median intensity (human diaphorase (NQO1)): 2.75
- NISC Lactam, log 10 transformed median intensity [2]: 3.16
- NISC Linear, log 10 transformed median intensity [2]: 2.58
- Streptavidin Lactam, log 10 transformed median intensity (Streptavidin): 2.53
- Streptavidin Linear, log 10 transformed median intensity (Streptavidin): 2.51
- FNR Lactam, log 10 transformed median intensity [3]: 2.59
- FNR Linear, log 10 transformed median intensity [3]: 2.54

Compound: TYPIYGPA [library array peptide, tested lactam constrained and linear]
- Ferredoxin Lactam, log 10 transformed median intensity (Ferredoxin): 2.80
- Ferredoxin Linear, log 10 transformed median intensity (Ferredoxin): 2.55
- Diaphorase Lactam, log 10 transformed median intensity (human diaphorase (NQO1)): 4.46
- Diaphorase Linear, log 10 transformed median intensity (human diaphorase (NQO1)): 2.77
- NISC Lactam, log 10 transformed median intensity [2]: 3.43
- NISC Linear, log 10 transformed median intensity [2]: 2.59
- Streptavidin Lactam, log 10 transformed median intensity (Streptavidin): 2.54
- Streptavidin Linear, log 10 transformed median intensity (Streptavidin): 2.52
- FNR Lactam, log 10 transformed median intensity [3]: 2.59
- FNR Linear, log 10 transformed median intensity [3]: 2.53

Compound: VPSSYNLN [library array peptide, tested lactam constrained and linear]
- Ferredoxin Lactam, log 10 transformed median intensity (Ferredoxin): 2.6
- Ferredoxin Linear, log 10 transformed median intensity (Ferredoxin): 2.58
- Diaphorase Lactam, log 10 transformed median intensity (human diaphorase (NQO1)): 4.38
- Diaphorase Linear, log 10 transformed median intensity (human diaphorase (NQO1)): 3.82
- NISC Lactam, log 10 transformed median intensity [2]: 2.68
- NISC Linear, log 10 transformed median intensity [2]: 2.65
- Streptavidin Lactam, log 10 transformed median intensity (Streptavidin): 2.57
- Streptavidin Linear, log 10 transformed median intensity (Streptavidin): 2.57
- FNR Lactam, log 10 transformed median intensity [3]: 2.58
- FNR Linear, log 10 transformed median intensity [3]: 2.57

From patent publication US20200407712A1, “ARRAY-BASED CYCLIC PEPTIDE LIBRARIES” (HealthTell Inc., priority 2018, published 2020)
